Assay results: publication PMC13095408, “DBeQ derivative targets vacuolar protein sorting 4 functions in cancer cells and suppresses tumor growth in mice” (The Journal of Pharmacology and Experimental Therapeutics, 2025)
Converted amounts (≈) assume the structure as drawn.

Columns and labels:
U2OS cells = assay: Immunoblot analysis of VPS4- and VCP-mediated pathways (autophagy, ER stress, ERAD); type: cell-based
Experimental: Whole-cell lysates were prepared in radio-immunoprecipitation buffer (25 mM Tris-HCl, pH 8.0, 150 mM NaCl, 1 mM EDTA, 1% v/v IGEPAL CA-630, 0.5% w/v sodium deoxycholate, and 1% v/v SDS) containing protease (1:250) and phosphatase inhibitor cocktails (1:100) then resolved via SDS-PAGE and probed with the indicated antibodies. Signals were acquired with the Odyssey CLx (LI-COR) for fluorescence or Odyssey XF (LI-COR) for chemiluminescence detection and visualized in Image Studio version 6 (LI-COR).
VPS4 is essential for autophagy and loss of VPS4 function inhibits autophagic flux ([Takahashi et al, 2018]; [Zhen et al, 2019]). Meanwhile, VCP is required for endoplasmic reticulum-associated degradation (ERAD; [Rabinovich et al, 2002]) where VCP inhibition results in the accumulation of ubiquitinated proteins and induction of ER stress ([Weihl et al, 2006]; [Bastola et al, 2016]).

Caco-2 permeability = type: in vitro ADME; details: human, 10 μM of compound
Experimental: All in vitro absorption, distribution, metabolism, and excretion (ADME) studies were conducted by BioDuro-Sundia. […] Caco-2 permeability, human liver microsomal stability, and human plasma protein binding assays as well as liquid chromatography-mass spectrometry/mass spectrometry analyses were performed following standard protocols previously described in detail ([Kazakova et al, 2023]).

VPS4B = target: T1, VPS4B (Homo sapiens, UniProt O75351); assay: VPS4B ATPase activity, EnzChek Phosphate assay; type: biochemical; design: His tag (pET28a vector-encoded) (N); made in house; host or cells: Escherichia coli BL21(DE3)
T1 sequence (O75351 1-444): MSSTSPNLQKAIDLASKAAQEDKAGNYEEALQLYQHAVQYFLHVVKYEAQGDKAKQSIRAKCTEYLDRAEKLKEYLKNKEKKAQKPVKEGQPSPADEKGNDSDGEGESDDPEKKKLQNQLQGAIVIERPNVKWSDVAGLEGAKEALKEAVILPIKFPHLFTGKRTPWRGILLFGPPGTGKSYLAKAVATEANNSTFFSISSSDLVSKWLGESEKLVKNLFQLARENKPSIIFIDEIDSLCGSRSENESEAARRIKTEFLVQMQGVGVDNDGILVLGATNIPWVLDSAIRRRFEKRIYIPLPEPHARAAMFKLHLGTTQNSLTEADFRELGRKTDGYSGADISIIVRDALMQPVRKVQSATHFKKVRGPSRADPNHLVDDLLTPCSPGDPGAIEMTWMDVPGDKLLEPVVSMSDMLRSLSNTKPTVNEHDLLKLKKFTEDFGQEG
How it was run: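 EnzChek phosphate release (MESG/PNP, 360 nm) with ATPases at 1 μM (diluted stock) in HEPES pH 7.4 buffers with MgCl2, CaCl2, DTT, BSA, Triton; 30 min compound preincubation at RT, started with MgATP, read 20 min at 37 °C. Activity from 5-min linear initial rate, normalized to DMSO; IC50 from Hill slope −1 fit.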

Thermodynamic solubility = type: physicochemical; details: FaSSIF-V2 buffer, thermodynamic from solid; In FaSSIF-V2, pH 6.5
[1] = 5 μM DBeQ, 0.6 μM CB-5083, 1 μM 4-107, complete media

Structure (SMILES): COc1cccc2c(NCc3ccccc3)nc(NCc3ccccc3)nc12 [Compound 4-107, N^2,N^4-dibenzyl-8-methoxyquinazoline-2,4-diamine]
- accumulation of K48-linked polyubiquitinated proteins (U2OS cells; 0.6 μM CB-5083, 1 μM 4-107, complete media): did not induce ER stress or the accumulation of polyubiquitinated proteins
- VCP pathway (ubiquitinated proteins, ATF4, SQSTM1) (U2OS cells; 5 μM 4-107, 4 hours, complete media): VCP pathway perturbation
- ER stress (HSPA5, ATF4) (U2OS cells; [1]): did not induce ER stress
- autophagy (SQSTM1, LC3-II) (U2OS cells; [1]): inhibited autophagy over time
- Papp A→B at 10 μM (Caco-2 permeability): 0.03 ×10⁻⁶ cm/s
- Papp B→A at 10 μM (Caco-2 permeability): 0.3 ×10⁻⁶ cm/s
- efflux ratio at 10 μM (Caco-2 permeability): 10.3
- IC50 (VPS4B; 0.5 μM enzyme): 3.7 ± 0.1 µM
- VPS4B ATPase (% DMSO) (VPS4B; remaining ATPase activity, screened at 5 μM, mean ± SD, Table 1, listed as 1): 36.67 ± 1.73 % DMSO
- VPS4B ATPase (% DMSO) (VPS4B; screened at 5 µM, mean ± S.D., Supplemental Table 2): 36.67 ± 1.73 % DMSO
- solubility thermodynamic at 16 h (Thermodynamic solubility): 17 µM (≈ 6.3 µg/mL)
